Results as given in patent US10201558B2, “Compositions of selenoorganic compounds and methods of use thereof” (Alltech, Inc., priority 2014, dated 2019).

Key:
Format in all cases: cell-based, human
[1] = system: PPARG; assay: QRT-PCR of PPARG mRNA in IMR-32 cells (normal, control KD, FOXO4 KD)
Protocol: (§1) IMR-32 cells were cultured on 12-well plates for 24 hours and then incubated with FOXO4 siRNA lentiviruses (SC-29650V, Santa Cruz) or control siRNA lentiviruses (sc-108080, Santa Cruz) in the presence of Polybrene (5 μg/ml, Santa Cruz) for 24 hours according to the manufacturer's protocol. These lentiviral siRNA-transfected cells were amplified in normal media for 3 days and then incubated with puromycin for 9-14 days to obtain the stable Control KD (stably transfected with the control siRNAs) and FOXO4KD (stably transfected with Foxo4 siRNAs) cells. These control and Foxo4 KD cells were subjected to cell survival, mitochondrial potential and RNA analysis.
(§2) Human IMR-32 cells were seeded on gelatinized 6-well (6.5×10^5 cells/well) or 24-well (1.3×10^5 cells/well) plates. Cells were treated with control (0 ppb) or various compounds for 6 hours or 24 hours. Total RNA from these cells was isolated using Trizol (Invitrogen) according to the manufacturer's protocol, and then incubated with DNase I to remove any potential contaminated genomic DNA. Then RNA samples were subjected to real-time PCR analysis using the Applied-Bioscience's RT kit and predesigned Taqman probes (Invitrogen), as described previously (Lan et al EMBO J 2003). The mRNA levels of UCP1, UCP2, UCP3, SLC25A27 (UCP4), SLC25A14 (UCP5), PSEN1, Nicastrin, GSK3B, MAPK11-14, PPARG, APOE, RCAN1, RCAN1.1, G6PC, INSR, IGF1R and FOXO4 were measured. Three to six samples were analyzed in each treatment group. Data were normalized by Actin B (ACTB) or Glyceraldehyde Phosphate Dehydrogenase (GAPDH) mRNA levels in each sample and are presented as mean±SEM of 3-6 samples.
To explore this possibility, IMR-32 cells were treated with 150 ppb Compound C, Compound D or Compound E (150 ppb) for 6 hours and 24 hours, and then subjected to Western blot and QRT-PCR analyses. […] Therefore, Compound C and Compound D are downregulators of PPARG in IMR-32 cells at both mRNA and protein levels. […]

[2] = system: MAPK12; assay: QRT-PCR of MAPK12 mRNA in control and FOXO4 KD IMR-32 cells; conditions: 24 hours
Protocol: as §1, §2
Normal control cells and FOXO4KD cells were incubated with two doses of Compound C for 24 hours, and subjected to QRT-PCR analysis of the MAPK11-14 genes. The relative mRNA expression of all four MAPK genes in normal control IMR-32 cells was assessed. […] Data in Compound C-treated control and FOXO4 KD cells were normalized by their levels in control and FOXO4KD cells, respectively. Mean±SEM of indicated number of samples in the bar graphs. […]

[3] = system: PEN2; assay: Western blot of PEN2 protein in IMR-32 cells; conditions: 150 ppb, 24 hours
Protocol: (§3) IMR-32 cells were seeded on 6-well plates and then treated with control and various compounds for 6 hours and 24 hours, as described above. After treatments, cells were rinsed with ice-cold PBS and lysed in ice-cold RIPA buffer containing complete proteinase and phosphatase inhibitors (Thermo-Fisher Scientific, Waltham, Mass.) on ice for 30 min Cell lysates were collected using a cell scraper and transfer pipette and then centrifuged at 12000×g for 30 min at 4° C. to remove the DNA pellet and obtain the protein extract. Protein levels in the supernatant of these cell lysates were determined using the Pierce Micro-BCA protein assay kit (Thermo Scientific-Piece Biotechnology, Rockford, Ill.) according to the manufacturer's protocol […]
(§4) Positive signals on the membrane blots were detected using Amersham's enhanced chemiluminescence (ECL) Western Blotting Prime Detection reagents (GE healthcare Lifescience, Pittsburgh, Pa.). Images of these luminescence signals on the membrane blots were captured using the LI-COR Odyssey Fc Image system (Lincoln, Nebr.). […] Protein band densities in the Western blots were determined using the Li—COR Image studio software or NIH ImageJ software, and then normalized by ACTB protein level in each sample. […]

[4] = system: PSEN1; assay: Western blot of PSEN1 protein in IMR-32 cells; conditions: 150 ppb, 24 hours
Protocol: as §3, §4

[5] = system: PPARG; assay: Western blot of PPARG protein in IMR-32 cells; conditions: 150 ppb, 6 hours
Protocol: as §3, §4

SMILES: C[Se]C[C@H]1O[C@@H](n2cnc3c(N)ncnc32)C(O)C1O (stereo in doubt) [Compound C, 5′-deoxy-5′-methylselenoadenosine]
- PPARG mRNA expression ([1]; FOXO4KD cells, 75 ppb and 150 ppb, 24 hours): not significantly altered
- PPARG mRNA levels ([1]; IMR-32 cells, 150 ppb, 6 hours): significantly lower
- PPARG mRNA levels ([1]; control normal cells, 75 ppb and 150 ppb, 24 hours): attenuated
- MAPK12 mRNA levels ([2]; FOXO4KD cells, 75 ppb and 150 ppb): none of the mRNA levels of the four MAPK genes in FOXO4KD cells were significantly altered
- MAPK12 mRNA levels ([2]; control KD cells, 75 ppb): significant decrease
- MAPK12 mRNA levels ([2]; control KD cells, 150 ppb): significantly decreased
- PEN2 protein levels [3]: but not PEN2 proteins, were reduced
- PSEN1 protein levels [4]: significant reduction
- PPARG protein expression [5]: markedly attenuated
